Data as given in paper PMC4402028 (Journal of Clinical Pharmacology, 2015).
Several values for one entry are separate records, joined by “and”; a condition that tells them apart may be missing. Equal entries are not always repeated. Where two headings read alike, the source gives them in different places.

Tests used:
[1] = Dog; IV 2 mg/kg; ref Furiex Studies DD7393, FK10138, FK10141, and FK10142; cited from earlier work
P-gp = conditions: in vitro; ref data on file at Furiex; cited from earlier work
[2] = in vitro or in vivo, except slow formation of a glucuronide found in human urine after 1,000 mg oral dose; ref data on file at Furiex; cited from earlier work
OCT2 [3] = conditions: in vitro; ref data on file at Furiex; cited from earlier work
Safety and tolerability = type: in vivo, human
OCT1 [4] = conditions: in vitro; ref data on file at Furiex; cited from earlier work
[5] = humans; single 300 mg radiolabeled dose; ref data on file at Furiex; cited from earlier work
OCT1 [6] = conditions: in vitro; ref data on file at Furiex; cited from earlier work; remark: listed apart in the source
[7] = plasma protein binding; model input, source not stated; cited from earlier work
BCRP [8] = conditions: in vitro; ref data on file at Furiex; cited from earlier work
[9] = Allometric PK scaling of CLTOT to human
[10] = type: in vivo, human; conditions: for AUC(0–inf), Ratio (%) of Geometric LS Means: all profiles with estimable elimination rates; for CL renal: plasma and urine, CLr; for Vd/F: Vz/F
BSEP = conditions: in vitro; ref data on file at Furiex; cited from earlier work
[11] = Rat; IV 10 mg/kg; ref Furiex Studies DD7393, FK10138, FK10141, and FK10142; cited from earlier work
MRP2 [12] = conditions: in vitro; ref data on file at Furiex; cited from earlier work
[13] = Rhesus; IV 3.2 mg/kg; ref Furiex Studies DD7393, FK10138, FK10141, and FK10142; cited from earlier work
BCRP [14] = conditions: in vitro; ref data on file at Furiex; cited from earlier work; remark: listed apart in the source
OAT1 [15] = conditions: in vitro; ref data on file at Furiex; cited from earlier work
OAT1 [16] = conditions: in vitro; ref data on file at Furiex; cited from earlier work; remark: listed apart in the source
OATP1B3 [17] = conditions: in vitro; ref data on file at Furiex; cited from earlier work
OAT3 = conditions: in vitro; ref data on file at Furiex; cited from earlier work
MRP2 [18] = conditions: in vitro; ref data on file at Furiex; cited from earlier work; remark: listed apart in the source
[19] = Cynos; IV 10 mg/kg; ref Furiex Studies DD7393, FK10138, FK10141, and FK10142; cited from earlier work
CYP-450s = conditions: in vitro; ref data on file at Furiex; cited from earlier work
[20] = ref data on file at Furiex; cited from earlier work
OCT2 [21] = conditions: in vitro; ref data on file at Furiex; cited from earlier work; remark: listed apart in the source
Caco2 cell-line = conditions: ref data on file at Furiex; cited from earlier work
[22] = Semiphysiological integrated PK/ADME model; parameters: species or system human; conditions: for clearance: oral
OATP1B3 [23] = conditions: in vitro; ref data on file at Furiex; cited from earlier work; remark: listed apart in the source
[24] = both, human, plasma, oral, eluxadoline 100 mg plus cyclosporine 600 mg, arithmetic mean (CV), n = 19
[25] = both, human, plasma, oral, eluxadoline 100 mg plus probenecid 500 mg, arithmetic mean (CV), n = 20
[26] = coadministered with probenecid vs eluxadoline alone
[27] = human, reference case without inhibitor, estimated
[28] = in the presence of cyclosporine

COc1ccc(CN(C(=O)[C@@H](N)Cc2c(C)cc(C(N)=O)cc2C)[C@@H](C)c2ncc(-c3ccccc3)[nH]2)cc1C(=O)O [eluxadoline]
CLtot [1]: 19.92 mL/min/kg
t½ [1]: 0.75 h
transport by P-gp (P-gp): not to be transported
hepatic drug metabolism [2]: absence of hepatic drug metabolism
inhibition of OCT2-mediated transport of probe substrates (OCT2 [3]): did not inhibit
nausea (Safety and tolerability; after eluxadoline alone): not reported
subjects reporting gastrointestinal AEs (Safety and tolerability; after eluxadoline alone (1 subject)): 3%
subjects reporting AEs (Safety and tolerability; after eluxadoline alone (2 subjects)): 7%
subjects reporting nausea (Safety and tolerability; after eluxadoline combined with cyclosporine (3 subjects)): 10.0%
subjects reporting gastrointestinal AEs (Safety and tolerability; after eluxadoline combined with probenecid (2 subjects)): 7%
subjects reporting gastrointestinal AEs (Safety and tolerability; after eluxadoline in combination with cyclosporine (4 subjects)): 13%
subjects reporting AEs (Safety and tolerability; after eluxadoline in combination with cyclosporine (6 subjects)): 20%
subjects reporting nausea (Safety and tolerability; after eluxadoline with probenecid (1 subject)): 3%
inhibition of OCT1-mediated transport of probe substrates (OCT1 [4]): did not inhibit
circulating metabolites [5]: no circulating metabolites were detected
transport by OCT1 (OCT1 [6]): not to be transported
fu (unbound fraction of drug in plasma) [7]: 19%
inhibition of BCRP-mediated transport of probe substrates (BCRP [8]): did not inhibit
clearance [9]: 12.6 mL/min/kg and 949 mL/min
Cmax, Ratio (%) of Geometric LS Means ([10]; B/A: with cyclosporine 600 mg vs eluxadoline alone): 6.18%
AUC(0–inf), Ratio (%) of Geometric LS Means ([10]; B/A: with cyclosporine vs alone): 4.25%
Cmax, Ratio (%) of Geometric LS Means ([10]; C/A: with probenecid 500 mg vs eluxadoline alone): 1.31%
AUC(0–inf), Ratio (%) of Geometric LS Means ([10]; C/A: with probenecid vs alone): 1.48%
CL renal ([10]; both, human, oral, eluxadoline 100 mg plus cyclosporine 600 mg, arithmetic mean (CV)): 96.7 mL/min
CL renal ([10]; both, human, oral, eluxadoline 100 mg plus probenecid 500 mg, arithmetic mean (CV)): 61.7 mL/min
Tmax ([10]; both, human, plasma, oral, 100 mg): 2.1 h
AUC(0-inf) ([10]; both, human, plasma, oral, 100 mg, Geometric LS Means, Treatment A, all profiles with estimable elimination rates (N 20)): 14.7 ng·h/mL
AUC(0-inf) ([10]; both, human, plasma, oral, 100 mg, Geometric LS Means, Treatment A, only subjects with estimable elimination rates for all 3 treatments (N 7)): 15.7 ng·h/mL
AUC(0-inf) ([10]; both, human, plasma, oral, Geometric LS Means, Treatment B (+ cyclosporine 600 mg), all profiles with estimable elimination rates (N 19)): 62.6 ng·h/mL
AUC(0-inf) ([10]; both, human, plasma, oral, Geometric LS Means, Treatment B (+ cyclosporine 600 mg), only subjects with estimable elimination rates for all 3 treatments (N 7)): 79.9 ng·h/mL
AUC(0-inf) ([10]; both, human, plasma, oral, Geometric LS Means, Treatment C (+ probenecid 500 mg), all profiles with estimable elimination rates (N 20)): 21.8 ng·h/mL
AUC(0-inf) ([10]; both, human, plasma, oral, Geometric LS Means, Treatment C (+ probenecid 500 mg), only subjects with estimable elimination rates for all 3 treatments (N 7)): 20.4 ng·h/mL
AUC(0-inf) [10, 24]: 75.3 ng·h/mL
AUC(0-inf) [10, 25]: 23 ng·h/mL
Cmax ([10]; both, human, plasma, oral, eluxadoline 100 mg plus cyclosporine 600 mg, arithmetic mean (CV), N = 30): 20.9 ng/mL
Cmax ([10]; both, human, plasma, oral, eluxadoline 100 mg plus probenecid 500 mg, arithmetic mean (CV), N = 29): 3.6 ng/mL
Vd/F [10, 24]: 20700 L
Vd/F [10, 25]: 37100 L
half-life ([10]; both, human, plasma, oral, t1/2, eluxadoline 100 mg plus cyclosporine 600 mg, arithmetic mean (CV), n = 19): 7.4 h
half-life ([10]; both, human, plasma, oral, t1/2, eluxadoline 100 mg plus probenecid 500 mg, arithmetic mean (CV), n = 20): 5.1 h
effect on renal clearance (CLren) of eluxadoline ([10]; by cyclosporine): little effect
reduction of renal clearance (CLren) ([10]; by probenecid): ~50%
increase in AUC(0–inf), geometric mean ratio ([10]; coadministered with cyclosporine vs alone, subjects with estimable elimination rates for all 3 treatments): 5.1 fold
increase in peak exposure (Cmax) ([10]; coadministered with cyclosporine vs eluxadoline alone): 6.2 fold
increase in peak exposure (Cmax) [10, 26]: 1.3 fold and 1.31 fold
increase in systemic/total exposure [AUC(0–inf)] [10, 26]: 1.30 fold and 1.3 fold
CLren, mean (CV%) ([10]; eluxadoline 100 mg alone): 116 (20%) mL/min and 116 mL/min
%Fe(0–72), cumulative urinary excretion over 72 hours as fraction of the dose ([10]; eluxadoline 100 mg alone, arithmetic mean (CV)): 0.12%
%Fe(0–72), cumulative urinary excretion over 72 hours as fraction of the dose ([10]; eluxadoline 100 mg alone, arithmetic mean (CV), listed as Eluxadoline): 0.12 (52) %
CL/F ([10]; eluxadoline 100 mg alone, arithmetic mean (CV), n = 20): 7550 (54) L/h
%Fe(0–72), cumulative urinary excretion over 72 hours as fraction of the dose ([10]; eluxadoline 100 mg plus cyclosporine 600 mg, arithmetic mean (CV)): 0.46%
CL/F ([10]; eluxadoline 100 mg plus cyclosporine 600 mg, arithmetic mean (CV), n = 19): 1943 (69) L/h
%Fe(0–72), cumulative urinary excretion over 72 hours as fraction of the dose ([10]; eluxadoline 100 mg plus probenecid 500 mg, arithmetic mean (CV)): 0.08%
%Fe(0–72), cumulative urinary excretion over 72 hours as fraction of the dose ([10]; eluxadoline 100 mg plus probenecid 500 mg, arithmetic mean (CV), listed as Eluxadoline): 0.08 (39) %
CL/F ([10]; eluxadoline 100 mg plus probenecid 500 mg, arithmetic mean (CV), n = 20): 5645 (53) L/h
Tmax ([10]; eluxadoline 100 mg plus probenecid 500 mg, median (minimum, maximum)): 2.5 (0.25, 6.0) hours
CLren, mean (CV%) ([10]; in the presence of cyclosporine 600 mg): 97 (19%) mL/min and 97 mL/min
CLren, mean (CV%) ([10]; in the presence of probenecid 500 mg): 62 (25%) mL/min and 62 mL/min
fraction of the eluxadoline dose excreted in urine unchanged (%Fe) ([10]; with or without cyclosporine and probenecid): less than 1%
inhibition of BSEP-mediated transport of probe substrates (BSEP): did not inhibit
CLtot [11]: 44.4 mL/min/kg
t½ [11]: 0.8 h
MRP2-dependent vesicular accumulation (MRP2 [12]): substrate of MRP2
CLtot [13]: 28.5 mL/min/kg
t½ [13]: 0.65 h
transport by BCRP (BCRP [14]): not to be transported
inhibition of OAT1-mediated transport of probe substrates (OAT1 [15]): did not inhibit
transport by OAT1 (OAT1 [16]): not to be transported
inhibition of OATP1B3-mediated transport of probe substrates (OATP1B3 [17]): did not inhibit
inhibition of OAT3-mediated transport of probe substrates (OAT3): did not inhibit
inhibition of MRP2-mediated transport of probe substrates (MRP2 [18]): did not inhibit
CLtot [19]: 18.54 mL/min/kg
t½ [19]: 3.73 h
inhibition or induction of CYP-450s (CYP-450s): no inhibition or induction
GI solubility [20]: high
transport by OCT2 (OCT2 [21]): not to be transported
Caco2 cell-line permeability (Caco2 cell-line): poor
PK-ADME-model-predicted AUC(0–inf) ([22]; eluxadoline alone): 17.8 ng·h/mL
renal excretion as share of overall elimination ([22]; human): 12%
clearance ([22]; human, plasma, 200 mg, biliary clearance (CLbil), without inhibitor, estimated): 832 mL/min
clearance ([22]; human, plasma, 200 mg, net tubular secretion clearance CLTS, without inhibitor, estimated): 459 mL/min
bioavailability ([22]; human, plasma, po, 200 mg): 1.02%
FGI (extent of GI absorption/GI permeability) [22, 27]: 2.3%
hepatic extraction ratio (ERhep) [22, 27]: 55.8%
intrinsic biliary CLint ([22]; human, without inhibitor, estimated): 9,370 mL/min
CLbil [22, 28]: 296 mL/min
Foral [22, 28]: 1.82%
reduction of CLTS [22, 28]: 24%
reduction of biliary CLint [22, 28]: 71%
CLbil ([22]; in the presence of probenecid): 750 mL/min
Foral ([22]; in the presence of probenecid): 1.15%
reduction of CLTS ([22]; in the presence of probenecid): 52%
reduction of biliary CLint ([22]; in the presence of probenecid): 21%
PK-ADME-model-predicted AUC(0–inf) ([22]; with cyclosporine): 78.3 ng·h/mL
model-predicted CLren ([22]; with cyclosporine): 92 mL/min
PK-ADME-model-predicted AUC(0–inf) ([22]; with probenecid): 23.6 ng·h/mL
model-predicted CLren ([22]; with probenecid): 62 mL/min
transport by OATP1B3 (OATP1B3 [23]): not to be transported
